According to ChEMBL document CHEMBL5543140 (J Med Chem, 2024):
pEC50, pKi: −log10 of the molar value. Calls of active or inactive are those of the source. The rule behind the calls is not given here.

Experiments:
[1] = Cmax in Wistar rat plasma at 1 mg/kg, iv measured upto 48 hrs; type: ADME, organism-based
[2] = Ex vivo binding in C57BL/6J mouse brain frontal cortex assessed as inhibition of [3H]Cimbi-36 binding at 1 mg/kg, sc measured after 100 mins by liquid scintillation counting analysis (reference value: 0%); type: functional; details: 1.667 h
[3] = Initial plasma concentration in Wistar rat at 1 mg/kg, iv measured upto 48 hrs; type: ADME, organism-based
[4] = Ex vivo binding in C57BL/6J mouse brain frontal cortex assessed as inhibition of [3H]Cimbi-36 binding at 1 mg/kg, sc measured after 300 mins by liquid scintillation counting analysis (reference value: 0%); type: functional; details: 5 h
[5] = biological target: 5-hydroxytryptamine receptor 6 (Homo sapiens, UniProt P50406); assay: Displacement of [3H]LSD from 5-HT6 receptor (unknown origin) assessed as inhibition binding
Chain of 5-hydroxytryptamine receptor 6 (P50406 whole entry): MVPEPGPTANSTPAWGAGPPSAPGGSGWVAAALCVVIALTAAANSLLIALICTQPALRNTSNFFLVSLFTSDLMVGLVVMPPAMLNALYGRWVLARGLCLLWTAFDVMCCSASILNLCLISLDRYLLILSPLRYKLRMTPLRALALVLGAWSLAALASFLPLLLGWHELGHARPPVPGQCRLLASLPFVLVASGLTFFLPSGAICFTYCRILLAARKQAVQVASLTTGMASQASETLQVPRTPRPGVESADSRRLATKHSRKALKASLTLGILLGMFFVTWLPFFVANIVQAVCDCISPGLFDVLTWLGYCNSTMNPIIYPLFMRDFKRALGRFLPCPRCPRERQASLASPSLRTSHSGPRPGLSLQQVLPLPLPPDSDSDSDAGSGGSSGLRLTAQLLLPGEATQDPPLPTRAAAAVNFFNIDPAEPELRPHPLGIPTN

Hippocampus [6] = assay: Induction of neuroplasticity in C57BL/6J mouse assessed as increase in SYN1 mRNA expression in brain hippocampus at 0.3 mg/kg, sc single dose by RT-PCR analysis; type: functional, organism-based
[7] = CSF to brain ratio in male Sprague-Dawley rat at 1 mg/kg, iv measured upto 8 hrs by LC-MS/MS analysis; type: ADME, organism-based; details: in vivo
[8] = Drug metabolism in rat hepatocytes assessed as formation of sulfoxide metabolites at 10 uM by HRAMS analysis; type: ADME, cell-based, Hepatocyte
Mus musculus [9] = assay: Induction of neuroplasticity in C57BL/6J mouse assessed as increase in Homer1 mRNA expression in brain frontal cortex at 3 mg/kg, sc single dose by RT-PCR analysis; type: functional, organism-based
[10] = biological target: 5-hydroxytryptamine receptor 1B (Homo sapiens, UniProt P28222); assay: Displacement of [3H]GR125743 from 5-HT1B receptor (unknown origin) assessed as inhibition binding at 10 uM relative to control
Chain of 5-hydroxytryptamine receptor 1B (P28222 whole entry): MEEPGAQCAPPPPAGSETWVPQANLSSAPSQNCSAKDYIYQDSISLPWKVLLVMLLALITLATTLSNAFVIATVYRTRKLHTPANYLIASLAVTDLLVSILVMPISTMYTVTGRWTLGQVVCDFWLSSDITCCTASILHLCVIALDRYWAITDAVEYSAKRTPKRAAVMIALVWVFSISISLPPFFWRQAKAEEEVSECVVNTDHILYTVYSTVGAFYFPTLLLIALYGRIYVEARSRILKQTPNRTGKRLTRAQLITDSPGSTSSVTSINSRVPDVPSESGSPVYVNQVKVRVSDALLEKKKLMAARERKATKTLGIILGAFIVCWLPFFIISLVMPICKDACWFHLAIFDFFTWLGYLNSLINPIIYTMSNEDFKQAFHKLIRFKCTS

Hippocampus [11] = assay: Induction of neuroplasticity in C57BL/6J mouse assessed as increase in c-Fos mRNA expression in brain hippocampus at 0.3 mg/kg, sc single dose by RT-PCR analysis; type: functional, organism-based
[12] = Cmax in Wistar rat plasma at 5 mg/kg, po measured upto 48 hrs; type: ADME, organism-based
Hippocampus [13] = assay: Induction of neuroplasticity in C57BL/6J mouse assessed as increase in CREB1 mRNA expression in brain hippocampus at 0.3 mg/kg, sc single dose by RT-PCR analysis; type: functional, organism-based
[14] = biological target: Muscarinic acetylcholine receptor M5 (Homo sapiens) (UniProt P08912); assay: Displacement of [3H]4-DAMP from human recombinant muscarinic M5 receptor expressed in HEK293 cells at 10 uM incubated for 60 mins by radiometric based scintillation counter assay relative to control; type: cell-based
Chain of Muscarinic acetylcholine receptor M5 (Homo sapiens) (P08912 whole entry): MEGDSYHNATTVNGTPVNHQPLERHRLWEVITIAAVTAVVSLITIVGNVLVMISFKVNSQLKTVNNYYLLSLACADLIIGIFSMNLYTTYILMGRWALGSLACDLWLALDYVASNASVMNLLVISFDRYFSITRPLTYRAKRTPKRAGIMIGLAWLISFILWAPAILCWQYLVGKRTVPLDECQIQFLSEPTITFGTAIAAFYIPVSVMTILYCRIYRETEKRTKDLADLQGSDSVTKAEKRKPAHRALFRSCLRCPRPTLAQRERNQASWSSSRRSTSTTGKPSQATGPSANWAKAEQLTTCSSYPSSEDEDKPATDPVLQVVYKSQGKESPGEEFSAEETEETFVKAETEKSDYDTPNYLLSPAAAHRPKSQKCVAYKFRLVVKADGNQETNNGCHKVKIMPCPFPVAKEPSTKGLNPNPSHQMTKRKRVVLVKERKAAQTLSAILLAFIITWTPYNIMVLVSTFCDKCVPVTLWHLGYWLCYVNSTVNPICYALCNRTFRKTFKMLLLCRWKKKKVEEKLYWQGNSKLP

[15] = Initial plasma concentration in male Sprague-Dawley rat at 1 mg/kg, iv measured upto 8 hrs by LC-MS/MS analysis; type: ADME, organism-based
Mus musculus [16] = assay: Psychedelic effect in C57BL/6J mouse assessed as induction of 5-HT2A receptor dependent maximal head-twitch responses by visual observation at 1 mg/kg, sc measured after 24 hrs; type: functional, organism-based
Mus musculus [17] = assay: Locomotor activity in C57BL/6J mouse assessed as distance traveled at 3 mg/kg, sc measured for 15 to 25 mins (reference value: 1710 +/- 120 cm) by Ethovision tracking system; type: functional; details: time 15-25 min
Mus musculus [18] = assay: Psychedelic effect in C57BL/6J mouse assessed as induction of 5-HT2A receptor dependent maximal head-twitch responses by visual observation at 1 mg/kg, sc at 100 mins; type: functional, organism-based
[19] = biological target: Alpha-2A adrenergic receptor (Homo sapiens, UniProt P08913); assay: Agonist activity at human recombinant adrenergic alpha-2A receptor expressed in CHO-K1 cells co-transfected with 22F-Glosensor assessed as inhibition of cAMP production measured after 30 mins incubation by Microbeta2Micro-plate counter analysis; type: functional, cell-based
Chain of Alpha-2A adrenergic receptor (P08913 whole entry): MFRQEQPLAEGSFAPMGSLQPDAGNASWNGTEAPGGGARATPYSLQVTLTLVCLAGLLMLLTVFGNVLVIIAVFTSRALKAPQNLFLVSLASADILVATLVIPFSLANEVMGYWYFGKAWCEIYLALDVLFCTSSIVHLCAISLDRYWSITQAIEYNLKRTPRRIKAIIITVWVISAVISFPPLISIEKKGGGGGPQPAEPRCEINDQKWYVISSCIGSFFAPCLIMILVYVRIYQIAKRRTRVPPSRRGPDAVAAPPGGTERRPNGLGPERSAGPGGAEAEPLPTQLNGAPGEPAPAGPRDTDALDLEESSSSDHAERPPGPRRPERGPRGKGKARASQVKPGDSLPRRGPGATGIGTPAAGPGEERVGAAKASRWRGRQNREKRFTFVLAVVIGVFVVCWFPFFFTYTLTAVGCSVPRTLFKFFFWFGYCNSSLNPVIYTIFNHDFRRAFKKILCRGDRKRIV

Mus musculus [20] = assay: Psychedelic effect in C57BL/6J mouse assessed as number of head-twitch responses by visual observation at 3 mg/kg, po measured for 3 mins at 5 to 25 min; type: functional; details: 0.05 h
[21] = AUClast in male Sprague-Dawley rat plasma at 1 mg/kg, iv measured upto 8 hrs by LC-MS/MS analysis; type: ADME, organism-based
[22] = biological target: Alpha-2B adrenergic receptor (Homo sapiens, UniProt P18089); assay: biochemical; type: cell-based, CHO-K1
Chain of Alpha-2B adrenergic receptor (P18089 whole entry): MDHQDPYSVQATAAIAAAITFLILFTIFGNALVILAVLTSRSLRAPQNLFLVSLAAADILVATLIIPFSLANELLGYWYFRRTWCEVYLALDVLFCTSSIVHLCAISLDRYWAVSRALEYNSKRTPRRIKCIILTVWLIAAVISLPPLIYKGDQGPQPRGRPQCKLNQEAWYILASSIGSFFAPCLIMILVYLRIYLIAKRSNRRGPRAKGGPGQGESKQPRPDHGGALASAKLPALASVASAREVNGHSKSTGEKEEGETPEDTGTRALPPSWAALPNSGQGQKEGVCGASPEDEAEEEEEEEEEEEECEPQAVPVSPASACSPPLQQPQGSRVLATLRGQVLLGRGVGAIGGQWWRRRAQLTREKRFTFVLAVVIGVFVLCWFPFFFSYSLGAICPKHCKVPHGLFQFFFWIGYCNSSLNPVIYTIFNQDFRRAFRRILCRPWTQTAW

Hippocampus [23] = assay: Induction of neuroplasticity in C57BL/6J mouse assessed as increase in Homer1 mRNA expression in brain hippocampus at 0.3 mg/kg, sc single dose by RT-PCR analysis; type: functional, organism-based
[24] = MRTinf in beagle dog at 0.4 mg/kg, iv measured upto 24 hrs; type: ADME, organism-based, Canis lupus familiaris; details: in vivo
Brain = assay: Drug binding in male Sprague-Dawley rat brain homogenate at 1 mg/kg, iv measured upto 8 hrs by LC-MS/MS analysis; type: ADME, organism-based; details: in vivo
[25] = Metabolic stability in human hepatocytes assessed as half life at 10 uM; type: ADME, cell-based, Hepatocyte
[26] = Tmax in male Sprague-Dawley rat brain at 1 mg/kg, iv measured upto 8 hrs by LC-MS/MS analysis; type: ADME, organism-based
[27] = AUCinf in Wistar rat plasma at 1 mg/kg, iv measured upto 48 hrs; type: ADME, organism-based
[28] = AUCinf in male Sprague-Dawley rat brain at 1 mg/kg, iv measured upto 8 hrs by LC-MS/MS analysis; type: ADME, organism-based
Hippocampus [29] = assay: Induction of neuroplasticity in C57BL/6J mouse assessed as increase in IGF1 mRNA expression in brain hippocampus at 3 mg/kg, sc single dose by RT-PCR analysis; type: functional, organism-based
[30] = MRTlast in Wistar rat brain at 1 mg/kg, iv measured upto 48 hrs; type: ADME, organism-based
[31] = Clearance in male Sprague-Dawley rat plasma at 1 mg/kg, iv measured upto 8 hrs by LC-MS/MS analysis; type: ADME, organism-based
[32] = biological target: T1, 5-hydroxytryptamine receptor 2C (Homo sapiens, UniProt P28335); assay: Displacement of [3H]LSD from human 5-HT2C receptor expressed in HEK293 cell membrane incubated for 90 mins by microbeta liquid scintillation counting method; type: cell membranes
T1 sequence (P28335 whole entry): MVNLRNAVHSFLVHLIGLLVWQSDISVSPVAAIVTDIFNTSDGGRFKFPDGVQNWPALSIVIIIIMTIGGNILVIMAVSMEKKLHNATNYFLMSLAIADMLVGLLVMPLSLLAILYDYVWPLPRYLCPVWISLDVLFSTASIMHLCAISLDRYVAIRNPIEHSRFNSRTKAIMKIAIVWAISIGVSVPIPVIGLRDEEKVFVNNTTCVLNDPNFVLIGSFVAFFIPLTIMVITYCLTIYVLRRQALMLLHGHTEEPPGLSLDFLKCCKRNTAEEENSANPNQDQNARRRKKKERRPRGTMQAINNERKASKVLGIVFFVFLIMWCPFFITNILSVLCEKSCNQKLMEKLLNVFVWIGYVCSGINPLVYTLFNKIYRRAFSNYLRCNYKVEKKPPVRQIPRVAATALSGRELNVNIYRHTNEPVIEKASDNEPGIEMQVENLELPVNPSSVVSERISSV

## COc1cc([Se]C(F)(F)F)c(OC)cc1CCN.Cl
[1]
  Cmax: 54.1 ng/mL
[2]
  inhibition in vivo at 1 mg/kg: 25%
[3]
  C0 at 48 h: 67.2 ng/mL
[4]
  inhibition in vivo at 1 mg/kg: 22%
[5]
  pKi: 5.89
Hippocampus [6]
  Activity: inactive
[7]
  Ratio: 0.016
[8]
  Drug metabolism: Metabolite_Detected
Mus musculus [9]
  Activity: Active
[10]
  inhibition: 83%
Hippocampus [11]
  Activity: inactive
[12]
  Cmax: 18.6 ng/mL
Hippocampus [13]
  Activity: inactive
[14]
  inhibition: 83%
[15]
  C0 at 8 h: 330 ng/mL
Mus musculus [16]
  Activity: inactive
Mus musculus [17]
  Activity: 2446 cm
Mus musculus [18]
  Activity: Active
[19]
  pEC50: 6.90
Mus musculus [20]
  Activity: 25
[21]
  AUC(0-t) at 8 h: 207 ng·h/mL
[22]
  pKi: 5.98
Hippocampus [23]
  Activity: inactive
[24]
  MRT inf: 5.58 h
Brain
  Activity: > 98%
[25]
  half-life at 10 µM: 16 h
[26]
  Tmax: 0.25 h
[27]
  AUC(0-inf): 50.7 ng·h/mL
[28]
  AUC(0-inf): 3280 ng·h/mL
Hippocampus [29]
  Activity: inactive
[30]
  MRT last at 48 h: 2.54 h
[31]
  clearance: 79.5 mL/min/kg
[32]
  pKi: 7.02
